Measurements from patent US10533010B2, “Substituted indole Mcl-1 inhibitors” (Vanderbilt University, priority 2014, dated 2020).

Molecular target: recombinant Mcl-1 (residues 172-327) (Homo sapiens (Human), UniProt Q07820)
Experiment: Fluorescence polarization anisotropy competition assay (FITC-Bak or FITC-Bim BH3 peptide) with Mcl-1
Type: binding
Conditions: Table 2; Ki bins given in nM; FITC-Bak or FITC-Bim peptide competition; Ki converted from IC50; read-out: Ki for Inhibition of Mcl-1

Sequence of recombinant Mcl-1 (residues 172-327) (Q07820 172-327): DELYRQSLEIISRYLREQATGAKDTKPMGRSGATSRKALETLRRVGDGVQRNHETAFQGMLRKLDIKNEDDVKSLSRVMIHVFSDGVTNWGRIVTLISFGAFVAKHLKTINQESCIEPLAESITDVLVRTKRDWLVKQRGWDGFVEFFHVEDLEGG

SMILES | Ki [nM]
Cc1cc(OCCCc2c3n(c4c(-c5c(C)nn(C)c5C)c(Cl)ccc24)CCCN(c2cccc(-c4nn[nH]n4)c2)C3=O)cc(C)c1Cl [I-354, 2-(3-(2H-tetrazol-5-yl)phenyl)-8-chloro-1-(3-(4-chloro-3,5-dimethylphenoxy)propyl)-7-(1,3,5-trimethyl-1H-pyrazol-4-yl)-2,3,4,5-tetrahydro-1H-[1,4]diazepino[1,2-a]indol-1-one] | < 50
Cc1cc(OCCCc2c(C(=O)Nc3ccc(C#N)cc3)[nH]c3c(-c4c(C)nn(C)c4C)c(Cl)ccc23)cc(C)c1Cl [I-355, 6-chloro-3-(3-(4-chloro-3,5-dimethylphenoxy)propyl)-N-(4-cyanophenyl)-7-(1,3,5-trimethyl-1H-pyrazol-4-yl)-1H-indole-2-carboxamide] | 51 to 100
Cc1cc(OCCCc2c3n(c4c(-c5c(C)nn(C)c5C)c(Cl)ccc24)CCCN(c2ccc(C#N)cc2)C3=O)cc(C)c1Cl [I-356, 4-(8-chloro-11-(3-(4-chloro-3,5-dimethylphenoxy)propyl)-1-oxo-7-(1,3,5-trimethyl-1H-pyrazol-4-yl)-4,5-dihydro-1H-[1,4]diazepino[1,2-a]indol-2(3H)-yl)benzonitrile] | 51 to 100
Cc1cc(OCCCc2c3n(c4c(-c5c(C)nn(C)c5C)c(Cl)ccc24)CCCN(c2ccc(-c4nn[nH]n4)cc2)C3=O)cc(C)c1Cl [I-357, 2-(4-(2H-tetrazol-5-yl)phenyl)-8-chloro-1-(3-(4-chloro-3,5-dimethylphenoxy)propyl)-7-(1,3,5-trimethyl-1H-pyrazol-4-yl)-2,3,4,5-tetrahydro-1H-[1,4]diazepino[1,2-a]indol-1-one] | < 50
Cc1cc(OCCCc2c3n(c4c(-c5c(C)nn(C)c5C)c(Cl)ccc24)CCCN(c2ncc(C(=O)O)s2)C3=O)cc(C)c1Cl [I-358, 2-(8-chloro-11-(3-(4-chloro-3,5-dimethylphenoxy)propyl)-1-oxo-7-(1,3,5-trimethyl-1H-pyrazol-4-yl)-4,5-dihydro-1H-[1,4]diazepino[1,2-a]indol-2(3H)-yl)thiazole-5-carboxylic acid] | < 50
Cc1cc(OCCCc2c3n(c4c(-c5c(C)nn(C)c5C)c(Cl)ccc24)CCCN(c2nc(C(=O)O)cs2)C3=O)cc(C)c1Cl [I-359, 2-(8-chloro-11-(3-(4-chloro-3,5-dimethylphenoxy)propyl)-1-oxo-7-(1,3,5-trimethyl-1H-pyrazol-4-yl)-4,5-dihydro-1H-[1,4]diazepino[1,2-a]indol-2(3H)-yl)thiazole-4-carboxylic acid] | < 50
Cc1cc(OCCCc2c3n(c4c(-c5c(C)nn(C)c5C)c(Cl)ccc24)CCCN(c2csc(C(=O)O)n2)C3=O)cc(C)c1Cl [I-360, 4-(8-chloro-11-(3-(4-chloro-3,5-dimethylphenoxy)propyl)-1-oxo-7-(1,3,5-trimethyl-1H-pyrazol-4-yl)-4,5-dihydro-1H-[1,4]diazepino[1,2-a]indol-2(3H)-yl)thiazole-2-carboxylic acid] | < 50
Cc1cc(OCCCc2c3n(c4c(-c5c(C)nn(C)c5C)c(Cl)ccc24)CCCN(c2ccc(C(=O)NS(=O)(=O)C4CC4)cc2)C3=O)cc(C)c1Cl [I-361, 4-(8-chloro-11-(3-(4-chloro-3,5-dimethylphenoxy)propyl)-1-oxo-7-(1,3,5-trimethyl-1H-pyrazol-4-yl)-4,5-dihydro-H-[1,4]diazepino[1,2-a]indol-2(3H)-yl)-N-(cyclopropylsulfonyl)benzamide] | < 50
Cc1cc(OCCCc2c3n(c4c(-c5c(C)nn(C)c5C)c(Cl)ccc24)CCCN(c2cc(C(=O)O)cc4nnn(C)c24)C3=O)cc(C)c1Cl [I-362, 7-(8-chloro-11-(3-(4-chloro-3,5-dimethylphenoxy)propyl)-1-oxo-7-(1,3,5-trimethyl-1H-pyrazol-4-yl)-4,5-dihydro-1H-[1,4]diazepino[1,2-a]indol-2(3H)-yl)-1-methyl-1H-benzo[d][1,2,3]triazole-5-carboxylic acid] | < 50
Cc1cc(OCCCc2c3n(c4c(-c5c(C)nn(C)c5C)c(Cl)ccc24)CCCN(c2cc(C(=O)O)cc4c2OCCO4)C3=O)cc(C)c1Cl [I-364, 8-(8-chloro-11-(3-(4-chloro-3,5-dimethylphenoxy)propyl)-1-oxo-7-(1,3,5-trimethyl-1H-pyrazol-4-yl)-4,5-dihydro-1H-[1,4]diazepino[1,2-a]indol-2(3H)-yl)-2,3-dihydrobenzo[b][1,4]dioxine-6-carboxylic acid] | < 50
Cc1cc(OCCCc2c3n(c4c(-c5c(C)nn(C)c5C)c(Cl)ccc24)CCCN(c2cc(C(=O)O)cc4c2ncn4C)C3=O)cc(C)c1Cl [I-365, 4-(8-chloro-11-(3-(4-chloro-3,5-dimethylphenoxy)propyl)-1-oxo-7-(1,3,5-trimethyl-1H-pyrazol-4-yl)-4,5-dihydro-1H-[1,4]diazepino[1,2-a]indol-2(3H)-yl)-1-methyl-1H-benzo[d]imidazole-6-carboxylic acid] | < 50
Cc1cc(OCCCc2c3n(c4c(-c5c(C)nn(C)c5C)c(Cl)ccc24)CCCN(c2cc(C(=O)O)c4cnn(C)c4c2)C3=O)cc(C)c1Cl [I-367, 6-(8-chloro-11-(3-(4-chloro-3,5-dimethylphenoxy)propyl)-1-oxo-7-(1,3,5-trimethyl-1H-pyrazol-4-yl)-4,5-dihydro-1H-[1,4]diazepino[1,2-a]indol-2(3H)-yl)-1-methyl-1H-indazole-4-carboxylic acid] | < 50
Cc1cc(OCCCc2c3n(c4c(-c5c(C)nn(C)c5C)c(Cl)ccc24)CCCN(c2cccc(C(=O)NS(C)(=O)=O)c2)C3=O)cc(C)c1Cl [I-368, 3-(8-chloro-11-(3-(4-chloro-3,5-dimethylphenoxy)propyl)-1-oxo-7-(1,3,5-trimethyl-1H-pyrazol-4-yl)-4,5-dihydro-H-[1,4]diazepino[1,2-a]indol-2(3H)-yl)-N-(methylsulfonyl)benzamide] | < 50
Cc1cc(OCCCc2c3n(c4c(-c5c(C)nn(C)c5C)c(Cl)ccc24)CCCN(c2cccc(C(=O)NS(=O)(=O)C4CC4)c2)C3=O)cc(C)c1Cl [I-369, 3-(8-chloro-11-(3-(4-chloro-3,5-dimethylphenoxy)propyl)-1-oxo-7-(1,3,5-trimethyl-1H-pyrazol-4-yl)-4,5-dihydro-H-[1,4]diazepino[1,2-a]indol-2(3H)-yl)-N-(cyclopropylsulfonyl)benzamide] | < 50
Cc1cc(OCCCc2c(C(=O)NCc3cc(Br)cc(C(=O)O)c3)[nH]c3c(-c4c(C)nn(C)c4C)c(Cl)ccc23)cc(C)c1Cl [I-370, 3-bromo-5-((6-chloro-3-(3-(4-chloro-3,5-dimethylphenoxy)propyl)-7-(1,3,5-trimethyl-1H-pyrazol-4-yl)-1H-indole-2-carboxamido)methyl)benzoic acid] | < 50
Cc1cc(OCCCc2c3n(c4c(-c5c(C)nn(C)c5C)c(Cl)ccc24)CCCN(C[C@H]2CC[C@H](C(=O)O)CC2)C3=O)cc(C)c1Cl [I-371, (1r,4r)-4-((8-chloro-11-(3-(4-chloro-3,5-dimethylphenoxy)propyl)-1-oxo-7-(1,3,5-trimethyl-1H-pyrazol-4-yl)-4,5-dihydro-1H-[1,4]diazepino[1,2-a]indol-2(3H)-yl)methyl)cyclohexane-1-carboxylic acid] | < 50
Cc1cc(OCCCc2c(C(=O)NCc3cccc(C(=O)O)c3)n(CCN3CCOCC3)c3c(-c4c(C)nn(C)c4C)c(Cl)ccc23)cc(C)c1Cl [I-372, 3-((6-chloro-3-(3-(4-chloro-3,5-dimethylphenoxy)propyl)-1-(2-morpholinoethyl)-7-(1,3,5-trimethyl-1H-pyrazol-4-yl)-1H-indole-2-carboxamido)methyl)benzoic acid] | < 50
Cc1cc(OCCCc2c(C(=O)NCc3ccc(C(=O)O)cc3)n(CCN3CCOCC3)c3c(-c4c(C)nn(C)c4C)c(Cl)ccc23)cc(C)c1Cl [I-373, 4-((6-chloro-3-(3-(4-chloro-3,5-dimethylphenoxy)propyl)-1-(2-morpholinoethyl)-7-(1,3,5-trimethyl-1H-pyrazol-4-yl)-1H-indole-2-carboxamido)methyl)benzoic acid] | < 50
Cc1cc(OCCCc2c(C(=O)N(C)Cc3ccc(C(=O)O)cc3)n(CCN3CCOCC3)c3c(-c4c(C)nn(C)c4C)c(Cl)ccc23)cc(C)c1Cl [I-374, 4-((6-chloro-3-(3-(4-chloro-3,5-dimethylphenoxy)propyl)-N-methyl-1-(2-morpholinoethyl)-7-(1,3,5-trimethyl-1H-pyrazol-4-yl)-1H-indole-2-carboxamido)methyl)benzoic acid] | < 50
Cc1cc(OCCCc2c3n(c4c(-c5c(C)nn(C)c5C)c(Cl)ccc24)CCCN(c2nn(C)c4cc(C(=O)O)ccc24)C3=O)cc(C)c1Cl [I-375, 3-(8-chloro-11-(3-(4-chloro-3,5-dimethylphenoxy)propyl)-1-oxo-7-(1,3,5-trimethyl-1H-pyrazol-4-yl)-4,5-dihydro-1H-[1,4]diazepino[1,2-a]indol-2(3H)-yl)-1-methyl-1H-indazole-6-carboxylic acid] | < 50
